In patent US20160237059A1, “HETEROCYCLIC SUBSTITUTED TRIFLUOROMETHYL PYRIMIDINONES AND THEIR USE” (BAYER PHARMA AKTIENGESELLSCHAFT, priority 2013, published 2016) one finds IC50 data, which are given here for 39 compounds.

For orientation: IC50 means the midpoint of a concentration-inhibition curve. Low values mean greater potency in that assay, high ones weaker potency in that assay.

One assay deals with T1, murine CCR2 (Mus musculus, UniProt P51683).
T1 construct: host or cells: U2OS β-arrestin cell line
Briefly: Functional β-arrestin recruiting test with murine MCP-1 (B-2b). The format is cell-based. The conditions noted are these: U2OS β-arrestin cell line transfected with murine CCR2; agonist murine MCP-1; in some cases means of several determinations. In a few lines: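 In a PathHunter β-galactosidase complementation assay, U2OS cells expressing murine CCR2 were preincubated 10 min with compound (10-point, 1:3.16 dilutions), then challenged with murine MCP-1 at its predetermined EC50 for 90 min at 37 °C. Luminescence was read after 60 min, and IC50 was fitted with a 4-parameter Hill function.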

Another assay deals with T2, human CCR2 (Homo sapiens, UniProt P41597).
T2 construct: host or cells: Chem-1 cell line
T2 sequence (P41597 1-360 isoform P41597-2): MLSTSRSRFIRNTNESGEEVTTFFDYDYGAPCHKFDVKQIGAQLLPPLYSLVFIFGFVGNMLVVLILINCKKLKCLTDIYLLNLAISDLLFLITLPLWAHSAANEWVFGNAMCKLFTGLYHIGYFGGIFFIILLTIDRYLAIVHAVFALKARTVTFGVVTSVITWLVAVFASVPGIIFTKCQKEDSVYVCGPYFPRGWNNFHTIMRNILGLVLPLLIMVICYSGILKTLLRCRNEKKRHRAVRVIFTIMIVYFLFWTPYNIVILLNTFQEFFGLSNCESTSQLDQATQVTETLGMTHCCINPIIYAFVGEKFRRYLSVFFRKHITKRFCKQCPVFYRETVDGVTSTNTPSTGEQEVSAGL
Briefly: Functional Ca2+ release test (B-1). The format is cell-based. The conditions noted are these: Chem-1 cell line transfected with human CCR2; 50% inhibition of the MCP-1 effect, MCP-1 at EC50 (about 5 nM); in some cases means of several determinations. A digest of the protocol:
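Inhibition of MCP-1-evoked Ca2+ release was measured over 120 s by fluorescence imaging in Fluo-4-loaded, human CCR2-transfected Chem-1 cells. Compounds, tested in 10-point 1:3.16 series, were added 10 min before agonist at its EC50 (typically about 5 nM). IC50 values were obtained by 4-parameter logistic fitting.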

T1 sequence (P51683 whole entry): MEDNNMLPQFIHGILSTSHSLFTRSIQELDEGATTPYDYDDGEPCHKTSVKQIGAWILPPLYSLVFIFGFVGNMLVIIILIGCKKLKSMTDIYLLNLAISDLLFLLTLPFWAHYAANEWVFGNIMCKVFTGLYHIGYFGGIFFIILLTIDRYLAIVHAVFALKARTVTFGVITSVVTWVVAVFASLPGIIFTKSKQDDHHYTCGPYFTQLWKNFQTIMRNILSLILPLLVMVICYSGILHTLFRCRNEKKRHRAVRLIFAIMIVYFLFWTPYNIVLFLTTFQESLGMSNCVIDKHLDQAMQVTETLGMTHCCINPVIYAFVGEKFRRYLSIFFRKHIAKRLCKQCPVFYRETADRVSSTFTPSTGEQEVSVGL

`CCCc1cc(-c2nc(C(F)(F)F)c(Oc3ccc(Cl)c(C(F)(F)F)c3)c(=O)[nH]2)no1` [Example 216]: the half-inhibitory concentration (IC50) on murine CCR2 came to 1.32 µM; on human CCR2, 0.0046 µM.
The matching figures for `CCc1cc(-c2nc(C(F)(F)F)c(Oc3ccc(Cl)c(C(F)(F)F)c3)c(=O)[nH]2)no1` [Example 217]: 0.874 µM and 0.0018 µM.
As to `CCc1cc(-c2nc(C(F)(F)F)c(Oc3ccc(Cl)c(Cl)c3)c(=O)[nH]2)no1` [Example 218], the half-maximal inhibitory concentration (IC50) on murine CCR2 was determined as 0.584 µM; against human CCR2, 0.0039 µM.
`O=c1[nH]c(-c2cc(C3CC3)on2)nc(C(F)(F)F)c1Oc1ccc(Cl)c(Cl)c1` [Example 219]: the half-maximal inhibitory concentration (IC50) is 1.04 µM at murine CCR2 and 0.0072 µM against human CCR2.
The matching figures for `O=c1[nH]c(-c2cc(C3CC3)on2)nc(C(F)(F)F)c1Oc1ccc(Cl)c(C(F)(F)F)c1` [Example 220]: 0.775 µM and 0.0035 µM.
The matching figures for `COCc1cc(-c2nc(C(F)(F)F)c(Oc3ccc(Cl)c(C(F)(F)F)c3)c(=O)[nH]2)no1` [Example 221]: 0.447 µM and 0.0013 µM.
On the same counts, the results for `COCc1cc(-c2nc(C(F)(F)F)c(Oc3ccc(Cl)c(Cl)c3)c(=O)[nH]2)no1` [Example 222] are 0.551 µM and 0.0065 µM.
With `Cc1cc(Oc2c(C(F)(F)F)nc(-c3cc[nH]n3)[nH]c2=O)ccc1Cl` [Example 223], the IC50 at murine CCR2 was found to be 0.021 µM; on human CCR2, 0.0001 µM.
For `Cc1ccc(Oc2c(C(F)(F)F)nc(-c3cc[nH]n3)[nH]c2=O)cc1Cl` [Example 224], the IC50 on murine CCR2 amounted to 0.047 µM; on human CCR2, 0.0003 µM.
On the same counts, the results for `Cn1ccc(-c2nc(C(F)(F)F)c(Oc3ccc(Cl)c(Cl)c3)c(=O)[nH]2)n1` [Example 225] are 0.15 µM and 0.0003 µM.
Turning to `Cn1ccc(-c2nc(C(F)(F)F)c(Oc3ccc(Cl)c(C(F)(F)F)c3)c(=O)[nH]2)n1` [Example 226], the IC50 on murine CCR2 was 0.087 µM; at human CCR2 it was 0.0005 µM.
The matching figures for `O=c1[nH]c(-c2nsc(Cl)c2Cl)nc(C(F)(F)F)c1Oc1ccc(Cl)c(Cl)c1` [Example 227]: 0.164 µM and 0.0064 µM.
The matching figures for `O=c1[nH]c(-c2nsc(Cl)c2Cl)nc(C(F)(F)F)c1Oc1ccc(Cl)c(C(F)(F)F)c1` [Example 228]: 0.227 µM and 0.0053 µM.
On the same counts, the results for `O=c1[nH]c(-c2ccon2)nc(C(F)(F)F)c1Oc1ccc(Cl)c(Cl)c1` [Example 229] are 0.044 µM and 0.0005 µM.
For the compound `O=c1[nH]c(-c2ccon2)nc(C(F)(F)F)c1Oc1ccc(Cl)c(C(F)(F)F)c1` [Example 230], the concentration for half-maximal inhibition (IC50) amounted to 0.044 µM at murine CCR2 and 0.0004 µM on human CCR2.
The matching figures for `Cc1cc(-c2nc(C(F)(F)F)c(Oc3ccc(Cl)c(Cl)c3)c(=O)[nH]2)no1` [Example 231]: 0.249 µM and 0.0001 µM.
On the same counts, the results for `Cc1cc(-c2nc(C(F)(F)F)c(Oc3ccc(Cl)c(C(F)(F)F)c3)c(=O)[nH]2)no1` [Example 232] are 0.17 µM and 0.0003 µM.
On the same counts, the results for `O=c1[nH]c(-c2ccsn2)nc(C(F)(F)F)c1Oc1ccc(Cl)c(Cl)c1` [Example 233] are 0.043 µM and 0.0002 µM.
`O=c1[nH]c(-c2ccsn2)nc(C(F)(F)F)c1Oc1ccc(Cl)c(C(F)(F)F)c1` [Example 234]: the IC50 at murine CCR2 stood at 0.027 µM; on human CCR2 it was 0.0003 µM.
On the same counts, the results for `COc1nn(C)cc1-c1nc(C(F)(F)F)c(Oc2ccc(Cl)c(C(F)(F)F)c2)c(=O)[nH]1` [Example 235] are 0.796 µM and 0.02 µM.
Regarding `COc1nn(C)cc1-c1nc(C(F)(F)F)c(Oc2ccc(Cl)c(Cl)c2)c(=O)[nH]1` [Example 236], the results for the IC50 at murine CCR2 and against human CCR2 were 0.72 µM and 0.692 µM, respectively.
Regarding `COc1csnc1-c1nc(C(F)(F)F)c(Oc2ccc(Cl)c(Cl)c2)c(=O)[nH]1` [Example 237], the half-maximal inhibitory concentration (IC50) on murine CCR2 worked out at 0.08 µM; against human CCR2 it was 0.001 µM.
On the same counts, the results for `COc1csnc1-c1nc(C(F)(F)F)c(Oc2ccc(Cl)c(C(F)(F)F)c2)c(=O)[nH]1` [Example 238] are 0.039 µM and 0.0009 µM.
On the same counts, the results for `O=c1[nH]c(-c2nscc2O)nc(C(F)(F)F)c1Oc1ccc(Cl)c(C(F)(F)F)c1` [Example 239] are 0.089 µM and 0.0026 µM.
`CCn1ccc(-c2nc(C(F)(F)F)c(Oc3ccc(Cl)c(C(F)(F)F)c3)c(=O)[nH]2)n1` [Example 240]: the IC50 amounted to 0.107 µM at murine CCR2 and 0.0005 µM against human CCR2.
The matching figures for `Cc1cnc(-c2nc(C(F)(F)F)c(Oc3ccc(Cl)c(Cl)c3)c(=O)[nH]2)[nH]1` [Example 241]: 0.076 µM and 0.0008 µM.
The matching figures for `Cc1cnc(-c2nc(C(F)(F)F)c(Oc3ccc(Cl)c(C(F)(F)F)c3)c(=O)[nH]2)[nH]1` [Example 242]: 0.153 µM and 0.0018 µM.
The matching figures for `O=c1[nH]c(-n2cnc(Cl)n2)nc(C(F)(F)F)c1Oc1ccc(Cl)c(Cl)c1` [Example 247]: 5.53 µM and 0.123 µM.
As to `CSc1cnn(-c2nc(C(F)(F)F)c(Oc3ccc(Cl)c(Cl)c3)c(=O)[nH]2)c1` [Example 248], the IC50 on murine CCR2 came to 1.23 µM; against human CCR2, 0.0022 µM.
Take `COc1cnn(-c2nc(C(F)(F)F)c(Oc3ccc(Cl)c(Cl)c3)c(=O)[nH]2)c1` [Example 249]: the half-inhibitory concentration (IC50) at murine CCR2 is 0.254 µM; against human CCR2, 0.0009 µM.
The matching figures for `CC(C)Oc1cnn(-c2nc(C(F)(F)F)c(Oc3ccc(Cl)c(Cl)c3)c(=O)[nH]2)c1` [Example 250]: 0.942 µM and 0.0041 µM.
On the same counts, the results for `CC(C)(C)c1nncn1-c1nc(C(F)(F)F)c(Oc2ccc(Cl)c(Cl)c2)c(=O)[nH]1` [Example 251] are 6.76 µM and 0.076 µM.
On the same counts, the results for `O=c1[nH]c(-n2ccc(C(F)(F)F)n2)nc(C(F)(F)F)c1Oc1ccc(Cl)c(Cl)c1` [Example 252] are 6.94 µM and 0.113 µM.
With `O=c1[nH]c(-n2cc(C(F)(F)F)cn2)nc(C(F)(F)F)c1Oc1ccc(Cl)c(Cl)c1` [Example 253], the IC50 at murine CCR2 stood at 4.23 µM; against human CCR2, 0.24 µM.
On the same counts, the results for `COc1nc(N)n(-c2nc(C(F)(F)F)c(Oc3ccc(Cl)c(Cl)c3)c(=O)[nH]2)n1` [Example 254] are 0.613 µM and 0.015 µM.
In the case of `O=c1[nH]c(-n2cncn2)nc(C(F)(F)F)c1Oc1ccc(Cl)c(Cl)c1` [Example 255, 5-(3,4-Dichlorophenoxy)-2-(1H-1,2,4-triazol-1-yl)-6-(trifluoromethyl)pyrimidin-4(3H)-one], the 50% inhibitory concentration (IC50) on murine CCR2 came to 1.34 µM; on human CCR2, 0.038 µM.
On the same counts, the results for `Nc1ccn(-c2nc(C(F)(F)F)c(Oc3ccc(Cl)c(Cl)c3)c(=O)[nH]2)n1` [Example 256, 2-(3-Amino-1H-pyrazol-1-yl)-5-(3,4-dichlorophenoxy)-6-(trifluoromethyl)pyrimidin-4(3H)-one] are 0.1 µM and 0.0008 µM.
On the same counts, the results for `Nc1cnc2cnn(-c3nc(C(F)(F)F)c(Oc4ccc(Cl)c(Cl)c4)c(=O)[nH]3)c2c1` [Example 257] are 0.276 µM and 0.0028 µM.
Take `O=c1[nH]c(-n2ncc3ncccc32)nc(C(F)(F)F)c1Oc1ccc(Cl)c(Cl)c1` [Example 258]: the IC50 on murine CCR2 was 0.949 µM; at human CCR2 it was 0.0099 µM.
